Experimental findings from ChEMBL document CHEMBL4732258, “Pyxinol bearing amino acid residues: Easily achievable and promising modulators of P-glycoprotein-mediated multidrug resistance” (Eur J Med Chem, 2021) are described below.

What all share (type): cell-based
The nature of series [1]: Cytotoxicity against human KBV cells assessed as cell viability at 10 uM incubated for 72 hrs by MTT assay. To be noted: read-out: Activity.
Series [2] concerns KBV. Briefly: Reversal of Pgp-mediated paclitaxel resistance in human KBV cells assessed as cell viability at 10 uM in presence of paclitaxel incubated for 72 hrs by MTT assay. Background: Tetrazolium dyes change colour on reduction, which living cells bring about.
The test system of series [3] is KBV. Briefly: Reversal of Pgp-mediated paclitaxel resistance in human KBV cells assessed as cell viability at 5 uM in presence of paclitaxel incubated for 72 hrs by MTT assay.

With `CC(C)(C)OC(=O)N[C@@H](Cc1ccccc1)C(=O)O[C@H]1CC[C@]2(C)[C@H]3C[C@@H](O)[C@@H]4[C@@H]([C@]5(C)CC[C@@H](C(C)(C)O)O5)CC[C@@]4(C)[C@]3(C)CC[C@H]2C1(C)C`, in series [1], the viability at 72 h, 10 µM turned out to be 17%. Besides, the Activity with KBV [2] (filed as modulator) came out at 16%; with KBV [3] (filed as modulator), 17%.
Take `CC(C)(C)OC(=O)N[C@@H](Cc1cn(C(=O)OC(C)(C)C)c2ccccc12)C(=O)O[C@H]1CC[C@]2(C)[C@H]3C[C@@H](O)[C@@H]4[C@@H]([C@]5(C)CC[C@@H](C(C)(C)O)O5)CC[C@@]4(C)[C@]3(C)CC[C@H]2C1(C)C`: the viability at 72 h, 10 µM in series [1] came out at 137%. Moreover, the values for the Activity in the series on KBV [2] and in the series on KBV [3] were 147% and 138%, respectively.
For `CC(C)(C)OC(=O)NCC(=O)O[C@H]1CC[C@]2(C)[C@H]3C[C@@H](O)[C@@H]4[C@@H]([C@]5(C)CC[C@H](C(C)(C)O)O5)CC[C@@]4(C)[C@]3(C)CC[C@H]2C1(C)C`, the viability at 72 h, 10 µM in series [1] stood at 106%. Also, the Activity in the series on KBV [2] (filed as modulator) was determined as 22%; in the series on KBV [3] (filed as modulator), 28%.
As for `CC(C)(O)[C@H]1CC[C@@](C)([C@H]2CC[C@]3(C)[C@@H]2[C@H](O)C[C@@H]2[C@@]4(C)CC[C@H](OC(=O)[C@@H](N)Cc5ccccc5)C(C)(C)[C@@H]4CC[C@]23C)O1`, the viability at 72 h, 10 µM in series [1] stood at 74%. In addition, the Activity with KBV [2] (filed as modulator) amounted to 21%; in the series with KBV [3] (filed as modulator) it was 26%.
As to `CC(C)(C)OC(=O)NCC(=O)O[C@H]1CC[C@]2(C)[C@H]3C[C@@H](O)[C@@H]4[C@@H]([C@]5(C)CC[C@@H](C(C)(C)O)O5)CC[C@@]4(C)[C@]3(C)CC[C@H]2C1(C)C`, the viability at 72 h, 10 µM in series [1] is 107%. Also, the Activity in the series on KBV [2] (filed as modulator) was found to be 18%; in the series on KBV [3] (filed as modulator), 30%.
Turning to `CC(C)(C)OC(=O)CC[C@H](NC(=O)OC(C)(C)C)C(=O)O[C@H]1CC[C@]2(C)[C@H]3C[C@@H](O)[C@@H]4[C@@H]([C@]5(C)CC[C@H](C(C)(C)O)O5)CC[C@@]4(C)[C@]3(C)CC[C@H]2C1(C)C`, in series [1], the viability at 72 h, 10 µM is 82%. The results for the Activity in the series on KBV [2] (filed as modulator) and in the series with KBV [3] (filed as modulator) were 19% and 31%, respectively.
For the molecule `C[C@@H](OCc1ccccc1)[C@H](NC(=O)OC(C)(C)C)C(=O)O[C@H]1CC[C@]2(C)[C@H]3C[C@@H](O)[C@@H]4[C@@H]([C@]5(C)CC[C@@H](C(C)(C)O)O5)CC[C@@]4(C)[C@]3(C)CC[C@H]2C1(C)C`, the viability at 72 h, 10 µM in series [1] worked out at 76%. Further, the Activity in the series on KBV [2] (filed as modulator) was determined as 19%; in the series on KBV [3] (filed as modulator), 24%.
In the case of `CC(C)(C)OC(=O)C[C@H](NC(=O)OC(C)(C)C)C(=O)O[C@H]1CC[C@]2(C)[C@H]3C[C@@H](O)[C@@H]4[C@@H]([C@]5(C)CC[C@@H](C(C)(C)O)O5)CC[C@@]4(C)[C@]3(C)CC[C@H]2C1(C)C`, the viability at 72 h, 10 µM in series [1] was found to be 88%. Besides, the Activity with KBV [2] (filed as modulator) was found to be 17%; with KBV [3] (filed as modulator), 35%.
For `CC(C)(O)[C@H]1CC[C@@](C)([C@H]2CC[C@]3(C)[C@@H]2[C@H](O)C[C@@H]2[C@@]4(C)CC[C@H](OC(=O)[C@@H](N)CCC(=O)O)C(C)(C)[C@@H]4CC[C@]23C)O1`, the viability at 72 h, 10 µM in series [1] was determined as 106%. In addition, the figures for the Activity in the series with KBV [2] and with KBV [3] were 72% and 105%, respectively.
`CC(C)[C@H](NC(=O)OC(C)(C)C)C(=O)O[C@H]1CC[C@]2(C)[C@H]3C[C@@H](O)[C@@H]4[C@@H]([C@]5(C)CC[C@@H](C(C)(C)O)O5)CC[C@@]4(C)[C@]3(C)CC[C@H]2C1(C)C`: the viability at 72 h, 10 µM in series [1] worked out at 128%. The Activity was determined as 110% in the series on KBV [2] and 106% in the series on KBV [3].
Regarding `CC(C)(C)OC(=O)NCCCC[C@H](NC(=O)OC(C)(C)C)C(=O)O[C@H]1CC[C@]2(C)[C@H]3C[C@@H](O)[C@@H]4[C@@H]([C@]5(C)CC[C@@H](C(C)(C)O)O5)CC[C@@]4(C)[C@]3(C)CC[C@H]2C1(C)C`, in series [1], the viability at 72 h, 10 µM was found to be 123%. Moreover, the Activity worked out at 21% in the series on KBV [2] (filed as modulator) and 28% with KBV [3] (filed as modulator).
